Patent US4249005A, “Alkoxymethyl and benzyloxymethyl phenobarbital compounds” (priority 1969, dated 1981)

Legend:
Acute oral toxicity = test: Acute oral toxicity; set-up: species or system adult albino male mice (Charles River strain); settings: mouse, in vivo
Method: (§1) All tests, with the exceptions noted, were conducted on adult albino male mice (Charles River strain); the dosage consisted of the active agent suspended in 10% aqueous acacia and was administered orally unless otherwise indicated.
(§2) Acute oral toxicity and acute intraperitoneal toxicity were determined in the conventional manner. The results were expressed as LD50, the dose required to produce death in 50% of the animals treated, determined graphically, with the 95% limits shown in parentheses.

[1] = Anticonvulsant effectiveness against Metrazol; type: in vivo, adult albino male mice (Charles River strain); settings: oral, mice; for ED50: Mus musculus, Metrazol 106.25 mg/kg subcutaneously, limits in parentheses
Method: as §1
(§3) Anticonvulsant effectiveness was determined against a convulsive dose of Metrazol (106.25 mg/kg) injected subcutaneously; the criterior for effectiveness was failure to show clonic convulsive seizures. Anticonvulsant activity was determined against a lethal dose of strychnine sulfate (1.5 mg/kg) injected subcutaneously; the criterion was failure to die, even though seizures appeared.

[2] = cited from earlier work
[3] = Hypnotic activity (loss of the righting reflex); type: in vivo, adult albino male mice (Charles River strain); settings: any dosage less than a lethal dose for compounds of the invention
Method: as §1

[4] = Anticonvulsant effectiveness against maximal electroshock; type: in vivo, adult albino male mice (Charles River strain); settings: for ED50: Mus musculus, at time of peak effect, limits in parentheses; for ED50 / Time of peak activity: oral, mice
Method: as §1
(§4) Anticonvulsant effectiveness of each agent against maximal electroshock was determined at the time of peak effect. The time of peak anticonvulsant activity was determined by administering dosages of various sizes to a group of animals and administering a maximal electroshock to the animals at intervals thereafter by supply 60 ma. current through a corneal electrode for 0.2 second. […] The time of peak effect thus determined was used for all subsequent tests of anticonvulsant activity on the same active agent.
The duration of the anticonvulsant effect against maximal electroshock was compared with that of phenobarbital sodium at a dosage level of 0.1 millimole/kg of each.

[5] = Acute intraperitoneal toxicity; set-up: species or system adult albino male mice (Charles River strain); settings: mouse, in vivo, ip, mice, 95% limits in parentheses
Method: as §1, §2

[6] = Neurological deficit (Swinyard et al. plus rotorod); set-up: species or system adult albino male mice (Charles River strain); settings: mouse, in vivo; oral, mice; 95% limits in parentheses
Method: as §1
The dosage required to produce a neurological deficit was determined by the method of Swinyard et al., J. Pharmacol. Exptl. Therap. 106, 319 (1952) except that one additional test was employed: the ability of the animal to remain for at least one minute on a "rotorod", a horizontal rod rotated at 6 r.p.m. The results were expressed as TD50, the dose required to produce the effect, determined graphically, with 95% limits.

[7] = reported in Doran, Medicinal Chemistry, 1959; cited from earlier work
[8] = Anticonvulsant activity against maximal electroshock in the rat; type: in vivo; settings: rat (Sprague Dawley Strain); limits in parentheses
Method: as §4

[9] = Anticonvulsant activity against strychnine; type: in vivo, adult albino male mice (Charles River strain); settings: Mus musculus, po, read-out: Strychnine, ED50
Method: as §1, §3

[10] = oral, mice, 95% limits in parentheses, read-out: LD50 (oral)
[11] = 0.1 millimole/kg, maximal electroshock

**Q.** With C=CCC1(C(C)CCC)C(=O)N(COC)C(=O)N(COC)C1=O (stereo not drawn) [Example 11, 1,3-dimethoxymethyl-5-allyl-5-(2-pentyl) barbituric acid] as the compound, how does the LD50 (Acute oral toxicity; [10]) read?
**A.** The LD50 was > 500 mg/kg.

**Q.** And the ED50 [1]?
**A.** The ED50 was ~100 mg/kg.

**Q.** With O=C1NC(=O)C(c2ccccc2)(c2ccccc2)N1 [diphenylhydantoin] as the compound, how does the hypnotic activity ([2]; known property) read?
**A.** The hypnotic activity was “not hypnotic”.

**Q.** What about the undesirable side effects ([2]; known property) of the same compound?
**A.** Its undesirable side effects is “hypertrophic gingivitis, megaloblastic anemia, toxic psychoses, and hirsutism”.

**Q.** With CCC1(c2ccccc2)C(=O)NC(=O)NC1=O [Phenobarbital, phenobarbital] as the compound, how does the hypnotic activity ([2]; known property) read?
**A.** The hypnotic activity was “exhibits hypnotic activity as well as anticonvulsant activity”.

**Q.** What about the anticonvulsant usefulness ([2]; long known, treatment of epilepsy) of the same compound?
**A.** The anticonvulsant usefulness was “useful as anticonvulsant agents in warm-blooded animals”.

**Q.** And the “Hypnotic activity (loss of the righting reflex, onset of sleep)” value [3]?
**A.** The value was “did exhibit hypnotic activity”.

**Q.** What does the source list for CCCCCCCCCCCCOCN1C(=O)N(COCCCCCCCCCCCC)C(=O)C(CC)(c2ccccc2)C1=O [Example 8, 1,3-dilauryloxymethyl-5-ethyl-5-phenyl barbituric acid]?
**A.** ED50 [4]: ~50 mg/kg; Time of peak activity ([4]; maximal electroshock): 2 h; LD50 (Acute oral toxicity; [10]): > 500 mg/kg

**Q.** What does the source list for CCOCN1C(=O)N(COCC)C(=O)C(CC)(c2ccccc2)C1=O [Example 5, 1,3-diethoxymethyl-5-ethyl-5-phenyl barbituric acid]?
**A.** ED50 [4]: < 25 mg/kg; Time of peak activity ([4]; maximal electroshock): 11/2

**Q.** With CCC1(CC)C(=O)N(COC)C(=O)N(COC)C1=O [Example 9, 1,3-dimethoxymethyl-5,5-diethyl-barbituric acid] as the compound, how does the LD50 [5] read?
**A.** Its LD50 is ~1000 mg/kg.

**Q.** What about the LD50 (Acute oral toxicity; [10]) of the same compound?
**A.** Its LD50 is > 1000 mg/kg.

**Q.** And the ED50 [1]?
**A.** The ED50 was 7 mg/kg.

**Q.** And the “Time of peak activity” value ([1]; reported with Metrazol result, test not stated)?
**A.** Its value is 1 h.

**Q.** What does the source list for COCN1C(=O)NC(c2ccccc2)(c2ccccc2)C1=O [Example 2, 3-methoxymethyl-5,5-diphenylhydantoin]?
**A.** ED50 [4]: < 25 mg/kg; duration of anticonvulsant activity (maximal electroshock) ([4]; after ingestion): more than 2 hours; onset of anticonvulsant activity (maximal electroshock) ([4]; after ingestion): less than 0.5 hour; LD50 (Acute oral toxicity; route not stated with the value (oral unless otherwise indicated), read-out: LD50): ~500 mg/kg

**Q.** For CCC1(c2ccccc2)C(=O)NC(=O)NC1=O [phenobarbital sodium, reference compound], which “time at which protection began to decrease” value [4, 11] is on record?
**A.** Its value is “four”.

**Q.** And the “time at which protection was nearly gone” value [4, 11]?
**A.** The value was “eight”.

**Q.** And the “onset of protection against maximal electroshock” value ([4]; 0.1 millimole/kg, comparator)?
**A.** Its value is “less than 0.5 hour”.

**Q.** Which LD50 (Acute oral toxicity; [10]) does the source give for C=CCC1(C(C)CCC)C(=O)N(COCc2ccccc2)C(=O)N(COCc2ccccc2)C1=O (stereo not drawn) [Example 12, 1,3-dibenzyloxymethyl-5-allyl-5-(2-pentyl) barbituric acid] here?
**A.** Its LD50 is > 1000 mg/kg.

**Q.** And the ED50 [1]?
**A.** The ED50 was ~200 mg/kg.

**Q.** For CCCCOCN1C(=O)N(COCCCC)C(=O)C(CC)(c2ccccc2)C1=O [Example 4, 1,3-di-(n)-butoxymethyl-5-ethyl-5-phenyl barbituric acid], which ED50 [4] is on record?
**A.** Its ED50 is < 100 mg/kg.

**Q.** What about the LD50 (Acute oral toxicity; [10]) of the same compound?
**A.** The LD50 was > 500 mg/kg.

**Q.** Which LD50 (Acute oral toxicity; [10]) does the source give for CCCCCCCCCCCCOCN1C(=O)N(COCCCCCCCCCCCC)C(=O)C(CC)(CC)C1=O [Example 10, 1,3-di-n-dodecyloxymethyl-5,5-diethyl barbituric acid] here?
**A.** The LD50 was > 1000 mg/kg.

**Q.** What about the ED50 [1] of the same compound?
**A.** The ED50 was ~200 mg/kg.

**Q.** With CCC1(c2ccccc2)C(=O)N(COC)C(=O)N(COC)C1=O [Example 1, 1,3-dimethoxymethyl-5-ethyl-5-phenyl barbituric acid] as the compound, how does the LD50 [5] read?
**A.** Its LD50 is 490 mg/kg.

**Q.** What about the “duration of protection against maximal electroshock at about the same level” value ([4]; 0.1 millimole/kg) of the same compound?
**A.** Its value is “more than eight”.

**Q.** What about the ED50 [4] of the same compound?
**A.** The ED50 was 13.5 mg/kg.

**Q.** What about the “Time of peak activity” value ([4]; maximal electroshock) of the same compound?
**A.** Its value is 2 h.

**Q.** And the “change in the ED50 to protect against maximal electroshock on repeated dosage” value ([4]; repeated daily dosage of the same animals for four days)?
**A.** Its value is “no significant change”.

**Q.** And the TD50 [6]?
**A.** Its TD50 is 47 mg/kg.

**Q.** What about the LD50 (Acute oral toxicity; [10]) of the same compound?
**A.** Its LD50 is 470 mg/kg.

**Q.** What about the hypnotic effect [7] of the same compound?
**A.** Its hypnotic effect is “without effect”.

**Q.** What about the ED50 [1] of the same compound?
**A.** The ED50 was 47 mg/kg.

**Q.** What about the ED50 [8] of the same compound?
**A.** The ED50 was 6.6 mg/kg.

**Q.** And the ED50 [9]?
**A.** The ED50 was 200 mg/kg.

**Q.** Which ED50 [4] does the source give for CCCCOCN1C(=O)NC(c2ccccc2)(c2ccccc2)C1=O [Example 6, 3-(n)-butoxymethyl-5,5-diphenylhydantoin] here?
**A.** Its ED50 is < 25 mg/kg.

**Q.** What about the LD50 (Acute oral toxicity; [10]) of the same compound?
**A.** The LD50 was > 500 mg/kg.
